# From PMC10525924, “Engineering and Purification of Microcin C7 Variants Resistant to Trypsin and Analysis of Their Biological Activity” (Antibiotics, 2023)
# Where a SMILES comes first, the peptide text is derived from it. Where no end group is shown, it is not given here.
# What was measured:
# Yej^+rimL^− strain [1] = assay: organism not typed; assay type: cell-based; details: agar diffusion; for Diameters of the inhibition zones, Trypsin-Untreated Group, Yej^+rimL^−: 200 μL fermentation supernatant, 1 × 10^5 CFU/mL, 4 °C 1 h then 37 °C 24 h, chloramphenicol 100 μL of 0.25 μg/mL; for Diameters of the inhibition zones, Trypsin-Untreated Group, Yej^+rimL^− / Diameters of the inhibition zones, Trypsin-Treated Group, Yej^+rimL^−: dash = no zone; for bacteriostatic activity after trypsin treatment, Yej^+rimL^− / Diameters of the inhibition zones, Trypsin-Treated Group, Yej^+rimL^−: supernatant treated with trypsin 50 μg/mL, 37 °C, 3 h; for Diameters of the inhibition zones, Trypsin-Treated Group, Yej^+rimL^−: pH 6.8, 37 °C 24 h
# From the text: To analyze the antimicrobial ability of the variants, we measured the inhibition zones of all 21 variants by the agar diffusion method. The peptide moiety of McC was recognized by a YejABEf-peptide transporter. The rimL contains an acetyltransferase domain homologous to MccE which can detoxify and provide resistance to McC [17]. The overexpression of the YejABEF gene cluster and rimL gene knockout made the strain hypersensitive to McC. Therefore, the Yej^+rimL^− strain was selected as the sensitive indicator bacterial strain.
# (§1) The pH was adjusted to 6.8.
# (§2) The fermentation supernatants and pure products were used to characterize the bacteriostatic effects of McC variants by the agar diffusion and microdilution methods. Yej^+rimL^− and E. coli K88 indicator bacteria were applied. The serotype of E. coli K88 was O149:K91, K88ac, a clinically isolated strain, and provided by the College of Veterinary Medicine, China Agricultural University. The indicated bacteria were diluted to 1 × 10^5 CFU/mL and added to plate medium cooled to 50 °C. Two hundred microliters of supernatants were added to each dish, and diffusion was performed at 4 °C for 1 h. After incubation at 37 °C for 24 h, the diameters of the inhibition zones were determined. One hundred microliters of 0.25 μg/mL chloramphenicol was used as a control. The MICs of the pure McC variants were determined by microdilution in a sterilized 96-well microplate. The McC variants were serially diluted 2 times in 96-well microplates with LB medium. The concentrations of the McC variants ranged from 0.125 to 100 µg/mL. Each well was inoculated with 10 μL of overnight bacterial culture at a concentration of 1.0 × 10^5 CFU/mL and incubated at 37 °C for 24 h. A microplate reader was used to automatically observe changes in absorbance at 600 nm in order to monitor bacterial growth. A positive control group (including inoculated medium) and a negative control group (with medium only) were included. The MIC was determined as the lowest concentration of McC variant that inhibited bacterial growth (preventing an increase in the absorbance reading). All tests were performed in triplicate.
# E. coli K88 = assay: microbe, parasite or virus in culture; assay type: cell-based; details: agar diffusion; for Diameters of the inhibition zones, Trypsin-Untreated Group, K88: 200 μL fermentation supernatant, 1 × 10^5 CFU/mL, 4 °C 1 h then 37 °C 24 h, chloramphenicol 100 μL of 0.25 μg/mL; for Diameters of the inhibition zones, Trypsin-Untreated Group, K88 / Diameters of the inhibition zones, Trypsin-Treated Group, K88: dash = no zone; for antimicrobial activity after trypsin treatment, K88 / Diameters of the inhibition zones, Trypsin-Treated Group, K88: supernatant treated with trypsin 50 μg/mL, 37 °C, 3 h; for Diameters of the inhibition zones, Trypsin-Treated Group, K88: pH 6.8, 37 °C 24 h
# Protocol: as §1, §2
# Yej^+rimL^− strain [2] = assay type: cell-based; details: HPLC-purified variants; microdilution in LB, 96-well; 0.125 to 100 µg/mL; 1.0 × 10^5 CFU/mL; 37 °C 24 h; absorbance 600 nm; triplicate
# Protocol: To accurately characterize the bacteriostatic abilities of the variants, the MICs of the pure McC variants toward the McCsensitive strain Yej^+rimL^− were determined. The MICs of all variants were lower than that of wild-type McC. From smallest to largest MIC, the above five variants were in the following order: R2A, R2T, R2Q, R2S, and R2H. […] Although the diameter of the inhibitory zone of R2M was smaller than those of the above five variants, the bacteriostatic ability of R2M was second only to R2T/R2Q, and the MIC was 50 μg/mL.
# as §2
# [3] = Remaining amount by RP-HPLC after pepsin treatment; assay type: in vitro ADME; details: isolated enzyme pepsin; pepsin treated for 3 h; read-out RP-HPLC; Table S2
# Protocol: (§3) To test whether the variants were tolerant to trypsin or other digestive enzymes, the amount of the remaining McC and its analogues remaining was determined by RP-HPLC after trypsin, pepsin, and chymotrypsin treated for 3 h (Table S2), and the inhibition zones of trypsin-treated variants were tested using the same method (Table 2).
# [4] = Remaining amount by RP-HPLC after chymotrypsin treatment; assay type: in vitro ADME; details: isolated enzyme chymotrypsin; chymotrypsin treated for 3 h; read-out RP-HPLC; Table S2
# Protocol: as §3
# [5] = HPLC retention time according to hydrophobicity; assay type: physicochemical; details: chromatographic, C18 5 μm 9.4 × 250 mm; A 0.1% trichloroacetic acid, B 0.1% trichloroacetic acid with 90% acetonitrile; linear 5% B to 50% B; 1 mL/min; 35 °C; 280 nm; varies according to hydrophobicity
# Protocol: To find the separation peaks of the variants, wildtype McC and blank control fermentation broth samples were tested by HPLC. The separation peaks with obvious differences (those with retention times of 11 min and 17 min) were purified and the antimicrobial activity was determined. […] Therefore, the molecular weight was further analyzed by mass spectrometry, and the separation peak at approximately 17 min was confirmed to be that of the desired purified McC. Since the mutations in this study involved only one amino acid and had few effects on the properties of the peptides, we predicted that the separation peaks of the variants should fluctuate around approximately 17 min according to their hydrophobicity. […] The purity of the purified variants was determined by HPLC to be greater than 80% (Table 3).
# The lyophilized supernatants were dissolved in deionized water, filtered through 0.22 μm aqueous-phase filter membranes, and purified by high-performance liquid chromatography (HPLC, Agilent Technologies Inc., Palo Alto, CA, USA) with C18 column (5 μm 9.4 × 250 mm, Agilent Technologies Inc., Palo Alto, CA, USA). The mobile phase was composed of 0.1% (v/v) trichloroacetic acid (solvent A) and 0.1% (v/v) trichloroacetic acid with 90% (v/v) acetonitrile (solvent B). A linear gradient from 95% A/5% B to 50% A/50% B was used with a flow rate of 1 mL/min, a sample volume of 10 μL, a column temperature of 35 °C, and a detection wavelength of 280 nm. Electrospray ionization mass spectrometry (ESI-MS) was used to compare the McC variant masses with the expected masses. The relationships between the relative abundances and the mass-to-charge ratios (m/z) of the ions were determined to confirm the identities of the experimentally produced McC variants.
# indicator bacteria = details: second to seventh codons of mccA replaced; cited from earlier work
# From the text: The heptapeptide precursor of McC, f-MRTGNAN, is encoded by the first gene in the mcc gene clusters, mccA [11]. Considering its protein nature, it is suitable for gene-based peptide engineering. Kazakov et al. first applied site-directed mutagenesis on the mccA gene, systematically replacing the second to seventh codons of mccA encoding 19 standard amino acids for a total of 114 mutations.
compound,measurement,setting,value
"CSCC[C@H](NC=O)C(=O)N[C@@H](CCCNC(=N)N)C(=O)N[C@H](C(=O)NCC(=O)N[C@@H](CC(N)=O)C(=O)N[C@@H](C)C(=O)N[C@@H](CC(=O)O)C(=O)NP(=O)(OCCCN)OC[C@H]1O[C@@H](n2cnc3c(N)ncnc32)[C@H](O)[C@@H]1O)[C@@H](C)O (some centres unmarked) [McC, Microcin C7] (HELM PEPTIDE1{[O=C[*:2]].M.R.T.G.N.A.[NCCCOP(=O)(NC(=O)[C@H](CC(=O)O)N[*:1])OC[C@H]1O[C@@H](n2cnc3c(N)ncnc32)[C@H](O)[C@@H]1O]}$$$$V2.0)","Diameters of the inhibition zones, Trypsin-Untreated Group, Yej^+rimL^−",Yej^+rimL^− strain [1],29.12 mm
same,"Diameters of the inhibition zones, Trypsin-Untreated Group, K88",E. coli K88,20.25 mm
same,MIC,Yej^+rimL^− strain [2],1.56 µg/mL
same,remaining at 3 h,[3],89.3 ± 1.16%
same,remaining at 3 h,[4],41.7 ± 1.07%
same,Retention Time,[5],17.198 min
CSCC[C@H](NC=O)C(=O)N[C@@H](C)C(=O)N[C@H](C(=O)NCC(=O)N[C@@H](CC(N)=O)C(=O)N[C@@H](C)C(=O)N[C@@H](CC(=O)O)C(=O)NP(=O)(OCCCN)OC[C@H]1O[C@@H](n2cnc3c(N)ncnc32)[C@H](O)[C@@H]1O)[C@@H](C)O (some centres unmarked) [R2A] (HELM PEPTIDE1{[O=C[*:2]].M.A.T.G.N.A.[NCCCOP(=O)(NC(=O)[C@H](CC(=O)O)N[*:1])OC[C@H]1O[C@@H](n2cnc3c(N)ncnc32)[C@H](O)[C@@H]1O]}$$$$V2.0),"bacteriostatic activity after trypsin treatment, Yej^+rimL^−",Yej^+rimL^− strain [1],exhibited antibacterial effects
same,"Diameters of the inhibition zones, Trypsin-Untreated Group, Yej^+rimL^−",Yej^+rimL^− strain [1],21.82 mm
same,"Diameters of the inhibition zones, Trypsin-Treated Group, Yej^+rimL^−",Yej^+rimL^− strain [1],19.07 mm
same,"antimicrobial activity after trypsin treatment, K88",E. coli K88,retained their antimicrobial activity
same,"Diameters of the inhibition zones, Trypsin-Untreated Group, K88",E. coli K88,16.53 mm
same,"Diameters of the inhibition zones, Trypsin-Treated Group, K88",E. coli K88,11.96 mm
same,MIC,Yej^+rimL^− strain [2],12.5 µg/mL
same,remaining at 3 h,[3],92.2 ± 1.04%
same,remaining at 3 h,[4],42.2 ± 0.86%
same,Retention Time,[5],17.167 min
same,antimicrobial activity of mccA substitution variants,indicator bacteria,bacteriostatic
CC[C@H](C)[C@H](NC(=O)[C@H](CCSC)NC=O)C(=O)N[C@H](C(=O)NCC(=O)N[C@@H](CC(N)=O)C(=O)N[C@@H](C)C(=O)N[C@@H](CC(=O)O)C(=O)NP(=O)(OCCCN)OC[C@H]1O[C@@H](n2cnc3c(N)ncnc32)[C@H](O)[C@@H]1O)[C@@H](C)O (some centres unmarked) [R2I] (HELM PEPTIDE1{[O=C[*:2]].M.I.T.G.N.A.[NCCCOP(=O)(NC(=O)[C@H](CC(=O)O)N[*:1])OC[C@H]1O[C@@H](n2cnc3c(N)ncnc32)[C@H](O)[C@@H]1O]}$$$$V2.0),"bacteriostatic activity after trypsin treatment, Yej^+rimL^−",Yej^+rimL^− strain [1],exhibited antibacterial effects
same,"Diameters of the inhibition zones, Trypsin-Untreated Group, Yej^+rimL^−",Yej^+rimL^− strain [1],18.36 mm
same,"Diameters of the inhibition zones, Trypsin-Treated Group, Yej^+rimL^−",Yej^+rimL^− strain [1],15.67 mm
same,"Diameters of the inhibition zones, Trypsin-Untreated Group, K88",E. coli K88,10.18 mm
same,MIC,Yej^+rimL^− strain [2],100 µg/mL
same,remaining at 3 h,[3],91.72 ± 0.87%
same,remaining at 3 h,[4],41.3 ± 0.55%
same,Retention Time,[5],18.166 min
CSCC[C@H](NC=O)C(=O)N[C@@H](CCC(N)=O)C(=O)N[C@H](C(=O)NCC(=O)N[C@@H](CC(N)=O)C(=O)N[C@@H](C)C(=O)N[C@@H](CC(=O)O)C(=O)NP(=O)(OCCCN)OC[C@H]1O[C@@H](n2cnc3c(N)ncnc32)[C@H](O)[C@@H]1O)[C@@H](C)O (some centres unmarked) [R2Q] (HELM PEPTIDE1{[O=C[*:2]].M.Q.T.G.N.A.[NCCCOP(=O)(NC(=O)[C@H](CC(=O)O)N[*:1])OC[C@H]1O[C@@H](n2cnc3c(N)ncnc32)[C@H](O)[C@@H]1O]}$$$$V2.0),"bacteriostatic activity after trypsin treatment, Yej^+rimL^−",Yej^+rimL^− strain [1],exhibited antibacterial effects
same,"Diameters of the inhibition zones, Trypsin-Untreated Group, Yej^+rimL^−",Yej^+rimL^− strain [1],19.45 mm
same,"Diameters of the inhibition zones, Trypsin-Treated Group, Yej^+rimL^−",Yej^+rimL^− strain [1],19.38 mm
same,"antimicrobial activity after trypsin treatment, K88",E. coli K88,retained their antimicrobial activity
same,"Diameters of the inhibition zones, Trypsin-Untreated Group, K88",E. coli K88,21.67 mm
same,"Diameters of the inhibition zones, Trypsin-Treated Group, K88",E. coli K88,14.56 mm
same,MIC,Yej^+rimL^− strain [2],25 µg/mL
same,remaining at 3 h,[3],87.6 ± 1.23%
same,remaining at 3 h,[4],49.6 ± 1.19%
same,Retention Time,[5],16.910 min
CSCC[C@H](NC=O)C(=O)N[C@H](C(=O)N[C@H](C(=O)NCC(=O)N[C@@H](CC(N)=O)C(=O)N[C@@H](C)C(=O)N[C@@H](CC(=O)O)C(=O)NP(=O)(OCCCN)OC[C@H]1O[C@@H](n2cnc3c(N)ncnc32)[C@H](O)[C@@H]1O)[C@@H](C)O)[C@@H](C)O (some centres unmarked) [R2T] (HELM PEPTIDE1{[O=C[*:2]].M.T.T.G.N.A.[NCCCOP(=O)(NC(=O)[C@H](CC(=O)O)N[*:1])OC[C@H]1O[C@@H](n2cnc3c(N)ncnc32)[C@H](O)[C@@H]1O]}$$$$V2.0),"bacteriostatic activity after trypsin treatment, Yej^+rimL^−",Yej^+rimL^− strain [1],exhibited antibacterial effects
same,"Diameters of the inhibition zones, Trypsin-Untreated Group, Yej^+rimL^−",Yej^+rimL^− strain [1],21.74 mm
same,"Diameters of the inhibition zones, Trypsin-Treated Group, Yej^+rimL^−",Yej^+rimL^− strain [1],17.23 mm
same,"antimicrobial activity after trypsin treatment, K88",E. coli K88,retained their antimicrobial activity
same,"Diameters of the inhibition zones, Trypsin-Untreated Group, K88",E. coli K88,15.27 mm
same,"Diameters of the inhibition zones, Trypsin-Treated Group, K88",E. coli K88,11.68 mm
same,MIC,Yej^+rimL^− strain [2],25 µg/mL
same,remaining at 3 h,[3],86.76 ± 0.77%
same,remaining at 3 h,[4],46.7 ± 0.66%
same,Retention Time,[5],17.418 min
"A6F: McC substitution variant of Kazakov et al., site-directed mutagenesis of mccA (MRTGNFN; ends and bridges not checked; UniProt Q47505 1-7, looked up, variant A6F) [reference compound]",antimicrobial activity of mccA substitution variants,indicator bacteria,loss of antimicrobial activity
"A6M: McC substitution variant of Kazakov et al., site-directed mutagenesis of mccA (MRTGNMN; ends and bridges not checked; UniProt Q47505 1-7, looked up, variant A6M) [reference compound]",antimicrobial activity of mccA substitution variants,indicator bacteria,loss of antimicrobial activity
